In patent US20240174618A1, “SUBSTITUTED (2-HETEROARYLOXYPHENYL)SULFONATES, SALTS THEREOF AND THEIR USE AS HERBICIDAL AGENTS” (Bayer Aktiengesellschaft, priority 2021, published 2024):

Legend:
Format in all cases: in vivo
[1] = system: Echinochloa crus-galli (ECHCG); test: A. Herbicidal pre-emergence efficacy, ECHCG; conditions: scored visually after about 3 weeks vs untreated controls
Outline: (§1)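 Applied before emergence onto covering soil at rates of 1280 g/ha or less, using 600 L/ha spray water with 0.5% additive. Scoring: visual % efficacy after ~3 weeks, greenhouse.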

[2] = system: Matricaria inodora (MATIN); test: A. Herbicidal pre-emergence efficacy, MATIN
Outline: as §1

[3] = system: Matricaria inodora (MATIN); test: C. Herbicidal pre-emergence efficacy, MATIN; conditions: scored after about 3 weeks
Excerpt: (§2) Seeds of monocotyledonous and dicotyledonous weed plants and crop plants were placed in plastic or organic planting pots and covered with soil. The compounds of the invention, formulated in the form of wettable powders (WP) or as emulsion concentrates (EC), were then applied to the surface of the covering soil as aqueous suspension or emulsion with addition of 0.5% additive at a water application rate equivalent to 600 l/ha (converted). After the treatment, the pots were placed in a greenhouse and kept under good growth conditions for the test plants. After about 3 weeks, the efficacy of the preparations was scored visually in comparison with untreated controls as percentages. For example, • 100% efficacy=plants have died, • 0% efficacy=like untreated control plants.
(§3) Tables C1a to C14b below show the effects of selected compounds of the general formula (I) according to table 1 on various harmful plants at an application rate corresponding to 320 g/ha or less, which were obtained by the experimental procedure mentioned above.

[4] = system: Pharbitis purpurea (PHBPU); test: C. Herbicidal pre-emergence efficacy, PHBPU; conditions: scored after about 3 weeks
Excerpt: as §2, §3

[5] = system: Alopecurus myosuroides (ALOMY); test: E. Herbicidal post-emergence efficacy, ALOMY
Procedure: (§4) Seeds of monocotyledonous and dicotyledonous weeds and crop plants were placed in sandy loam in plastic or organic planting pots, covered with soil and cultivated in a greenhouse under controlled growth conditions. 2 to 3 weeks after sowing, the test plants were treated at the one-leaf stage. The compounds of the invention, formulated in the form of wettable powders (WP) or as emulsion concentrates (EC), were then sprayed onto the green parts of the plants as aqueous suspension or emulsion with addition of 0.5% additive at a water application rate of 600 l/ha (converted). After the test plants had been kept in the greenhouse under optimum growth conditions for about 3 weeks, the activity of the preparations was rated visually in comparison to untreated controls.
(§5) For example, • 100% efficacy=plants have died, • 0% action=like untreated control plants.
(§6) Tables E1a to E12b below show the effects of selected compounds of the general formula (I) according to table 1 on various harmful plants at an application rate corresponding to 320 g/ha or less, which were obtained by the experimental procedure mentioned above.

[6] = system: Digitaria sanguinalis (DIGSA); test: E. Herbicidal post-emergence efficacy, DIGSA
Procedure: as §4, §5, §6

[7] = system: Alopecurus myosuroides (ALOMY); test: B. Herbicidal post-emergence efficacy, ALOMY; conditions: rated visually after about 3 weeks
Procedure: Seeds of mono- and dicotyledonous weed plants were placed in plastic pots in sandy loam soil (doubly sown with in each case one species of mono- or dicotyledonous weed plants per pot), covered with soil and cultivated in a greenhouse under controlled growth conditions. 2 to 3 weeks after sowing, the test plants were treated at the one-leaf stage. The compounds of the invention, formulated in the form of wettable powders (WP) or as emulsion concentrates (EC), were applied onto the green parts of the plants as aqueous suspension or emulsion with addition of 0.5% additive at a water application rate of 600 liters per hectare (converted). After the test plants had been kept in the greenhouse under optimum growth conditions for about 3 weeks, the activity of the preparations was rated visually in comparison to untreated controls.
For example, • 100% efficacy=plants have died, • 0% efficacy=like untreated control plants
Tables B1a to B12c below show the effects of selected inventive compounds of the general formula (I) according to table 1 on various harmful plants at an application rate corresponding to 1280 g/ha or less, which were obtained by the experimental procedure mentioned above.

[8] = system: Zea mays (ZEAMX); test: D. Pre-emergence effect on useful plants, ZEAMX; conditions: useful plant
Outline: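 Seeds sown in pots and covered with soil; WP or EC formulations sprayed on the soil surface as aqueous suspension/emulsion with 0.5% additive at 600 l/ha water. Plants grown in greenhouse; crop damage scored visually after about 3 weeks as % versus untreated controls (100% = dead, 0% = like control).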

[9] = 320 g/ha, scored visually after about 3 weeks vs untreated controls
[10] = pre-emergence, dosage 1280 g/ha

Row | Pre-emergence efficacy against ZEAMX in % ([8]; application rate 80 g/ha) [%] | Pre-emergence efficacy against ZEAMX in % ([8]; application rate 320 g/ha) [%] | Compound | Pre-emergence efficacy against ECHCG ([1]; 80 g/ha) [%] | Pre-emergence efficacy against ECHCG ([1]; 320 g/ha) [%] | Pre-emergence efficacy against ECHCG ([1]; 1280 g/ha) [%] | Pre-emergence efficacy against MATIN [2, 9] [%] | Pre-emergence efficacy against MATIN [2, 10] [%] | Pre-emergence efficacy against MATIN ([3]; 320 g/ha) [%] | Pre-emergence efficacy against PHBPU ([4]; 320 g/ha) [%] | Post-emergence efficacy against ALOMY in % ([5]; application rate 320 g/ha) [%] | Post-emergence efficacy against DIGSA in % ([6]; application rate 80 g/ha) [%] | Post-emergence efficacy against DIGSA in % ([6]; application rate 320 g/ha) [%] | Post-emergence efficacy against ALOMY in % ([7]; 320 g/ha) [%] | Post-emergence efficacy against ALOMY in % ([7]; 1280 g/ha) [%] | Pre-emergence efficacy against MATIN ([3]; 80 g/ha) [%] | Pre-emergence efficacy against PHBPU ([4]; 80 g/ha) [%] | Post-emergence efficacy against ALOMY in % ([5]; application rate 80 g/ha) [%]
1 |  |  | O=S(=O)(CCC(F)(F)F)Oc1c(F)cccc1Oc1ncc(Br)cn1 [Example I-40] | 100 | 100 | 100 | 100 | 100 | 80 | 100 | 90 | 80 | 100 |  |  |  |  | 
2 |  |  | O=S(=O)(CCCC(F)(F)F)Oc1c(F)cccc1Oc1ncc(F)cn1 [Example I-42] | 100 | 100 | 100 | 90 | 100 | 100 | 100 | 100 | 90 | 90 | 100 | 100 | 90 | 100 | 90
3 | 0 |  | O=S(=O)(CCC(F)(F)F)Oc1c(Br)cccc1Oc1ncc(F)cn1 [Example I-43] |  | 100 | 100 |  | 90 | 80 |  |  |  |  |  |  |  |  | 
4 | 0 | 20 | Cc1cccc(Oc2ncc(F)cn2)c1OS(=O)(=O)CCC(F)(F)F [Example I-45] | 90 | 100 | 100 |  | 90 |  |  |  |  |  |  | 90 |  |  | 
5 |  |  | O=S(=O)(CCC(F)(F)F)Oc1c(F)cccc1Oc1ncc(F)cn1 [Example I-47] | 100 | 100 | 100 | 100 | 100 | 100 | 100 | 100 |  |  | 90 | 100 | 90 | 90 | 
6 | 0 |  | C=CCCS(=O)(=O)Oc1c(F)cccc1Oc1ncc(Cl)cn1 [Example I-50] |  | 90 | 100 |  | 90 |  |  |  |  |  |  |  |  |  | 
7 | 10 |  | O=S(=O)(CCC1CC1)Oc1c(F)cccc1Oc1ncc(Cl)cn1 [Example I-55] |  | 100 | 100 |  |  |  |  |  |  | 90 |  | 90 |  |  | 
8 |  |  | O=S(=O)(CCCC(F)F)Oc1c(F)cccc1Oc1ncc(Cl)cn1 [Example I-56] | 100 | 100 | 100 |  | 100 |  | 100 | 80 |  | 100 |  |  |  | 100 | 
9 | 10 |  | O=S(=O)(CCCC(F)(F)C(F)(F)F)Oc1c(F)cccc1Oc1ncc(Cl)cn1 [Example I-68] |  | 90 | 100 | 100 | 100 | 100 |  |  |  | 90 |  |  | 90 |  | 
10 |  |  | O=S(=O)(CCC(F)=C(F)F)Oc1c(F)cccc1Oc1ncc(Cl)cn1 [Example I-70] |  |  |  |  |  |  |  |  |  | 90 |  |  |  |  | 

Row | Compound | Pre-emergence efficacy against ZEAMX in % ([8]; application rate 80 g/ha) [%] | Pre-emergence efficacy against ZEAMX in % ([8]; application rate 320 g/ha) [%] | Pre-emergence efficacy against ECHCG ([1]; 80 g/ha) [%] | Pre-emergence efficacy against ECHCG ([1]; 320 g/ha) [%] | Pre-emergence efficacy against ECHCG ([1]; 1280 g/ha) [%] | Pre-emergence efficacy against MATIN [2, 9] [%] | Pre-emergence efficacy against MATIN [2, 10] [%] | Pre-emergence efficacy against MATIN ([3]; 320 g/ha) [%] | Pre-emergence efficacy against PHBPU ([4]; 320 g/ha) [%] | Post-emergence efficacy against ALOMY in % ([5]; application rate 320 g/ha) [%] | Post-emergence efficacy against DIGSA in % ([6]; application rate 80 g/ha) [%] | Post-emergence efficacy against DIGSA in % ([6]; application rate 320 g/ha) [%] | Post-emergence efficacy against ALOMY in % ([7]; 320 g/ha) [%] | Post-emergence efficacy against ALOMY in % ([7]; 1280 g/ha) [%] | Pre-emergence efficacy against MATIN ([3]; 80 g/ha) [%] | Pre-emergence efficacy against PHBPU ([4]; 80 g/ha) [%] | Post-emergence efficacy against ALOMY in % ([5]; application rate 80 g/ha) [%]
11 | Cc1cccc(Oc2ncc(F)cn2)c1OS(=O)(=O)CCCC(F)(F)F [Example I-46] | 0 |  | 100 | 100 | 100 |  | 90 |  |  |  |  |  |  | 90 |  |  | 
12 | N#Cc1cccc(Oc2ncc(Cl)cn2)c1OS(=O)(=O)CCCC(F)(F)F [Example I-81] | 0 |  |  |  |  |  |  |  | 100 | 90 | 80 | 90 |  |  |  |  | 
